Measurements taken from patent publication US8236533B2, “Process for the production of γ-glutamylcysteine” (NewSouth Innovations PTY Limited, priority 2005, dated 2012).
Converted amounts (≈) assume the structure as drawn. “And” between values parts separate entries of the source, which are not always exact repeats. Equal entries are not always repeated. Values belong to the molecule of their own block, whether it stands above or below them.

What was measured:
physchem [1] = test: physchem
isoelectric point (pI) = type: physicochemical
[2] = stability on removal of water by evaporation; type: physicochemical; settings: temperatures above 40° C.
Procedure: Example 13 describes purification of GGC from a mixture comprising GGC and 2-mercaptoethanol, with subsequent freeze-drying. However, it is not expected that freeze drying would be an economic option at industrial scale. Removal of water by conventional evaporation at temperatures above 40° C. results in degradation of the product. However, a process of concentration by nanofiltration is expected to be most suitable at industrial scale as it is both low temperature and a cost effective method for water removal. […] After the removal of the majority of water by nanofiltration and a pH adjustment to the pH of the isoelectric point (GGC=pH 2.8) the addition of an antisolvent such as ethanol or acetone can be added to initiate spontaneous crystallization. The final product can be collected by filtration and dried under reduced pressure.

glutathione levels = test: utilization of GGC in mice: glutathione levels; type: in vivo; settings: preliminary studies
Excerpt: The final form of GGC, whether it be in the reduced state as γ-glutamylcysteine or in the disulphide form as bis-γ-glutamylcystine, is dependent on the final application of the dipeptide. […] The oxidised form bis-γ-glutamylcystine is more likely to be suitable for application as a nutraceutical supplement as no special precautions to prevent the oxidation of the sulphydryl, would be required, whereas application in the treatment of poisoning or as an antioxidant in food or cosmetics would require the reducing power of the sulphydryl of γ-glutamylcysteine. Whatever the desired form, both are relatively easily interconverted by reduction which can be achieved either chemically (Jocelyn, P. C., Chemical reduction of disulfides. Methods in Enzymology, 1987. 143: p. 246-56), electrochemically (Genders, J. D., N. L. Weinberg, and D. J. Mazur, High yield methods for electrochemical preparation of cysteine and analogues. 1988, U.S. Pat. No. 5,106,463. The Electrosynthesis Company, Inc.) or oxidized to the disulphide form simply by exposing a solution to air (oxygen) with a trace amount of copper or iron salt added to catalyse the reaction.

physchem [3] = settings: pH 9.1, aqueous with cosolvent or surfactant or cyclodextrin, thermodynamic from solid

Structure (SMILES): COC(=O)[C@@H](N)CSSC[C@H](N)C(=O)OC.Cl.Cl [CDME, cystine dimethyl ester dihydrochloride]
- solubility (physchem [1]): > 20 mg/mL

Structure (SMILES): N[C@@H](CSSCCO)C(=O)O [Cys-Merc, cysteine-mercaptoethanol mixed disulphide]
- isoelectric point (pI) (isoelectric point (pI)): 5.2 and 5.3
- aqueous solubility (aqueous solubility): ~20 g/L (≈ 101 mM)

Structure (SMILES): N[C@@H](CCC(=O)NC(CSSCCO)C(=O)O)C(=O)O (stereo partly shown) [GGC-Merc, γ-glutamylcysteine-mercaptoethanol disulphide]
- isoelectric point (pI) (isoelectric point (pI)): 3.0

Structure (SMILES): N[C@@H](CCC(=O)N[C@@H](CSSC[C@H](NC(=O)CC[C@H](N)C(=O)O)C(=O)O)C(=O)O)C(=O)O [bis-γ-glutamylcystine]
- glutathione levels after administration (glutathione levels): significantly increase glutathione levels

Continued, in another order:

- isoelectric point (pI) (isoelectric point (pI)): 5.8
Structure (SMILES): CCOC(=O)CC[C@H](N)C(=O)O [GEE, glutamic acid γ-ethyl ester]

- stability on conventional evaporation of water [2]: degradation
- isoelectric point (pI) (isoelectric point (pI)): 2.8
Structure (SMILES): N[C@@H](CCC(=O)N[C@@H](CS)C(=O)O)C(=O)O [GGC, γ-Glutamylcysteine]
- glutathione levels after administration (glutathione levels): significantly increase glutathione levels

- solubility limit (aqueous solubility; pH 8.5 in 100 mM phosphate buffer): 8.4 mM (≈ 2240 µg/mL)
Structure (SMILES): N[C@@H](CCC(=O)Nc1ccc([N+](=O)[O-])cc1)C(=O)O [GPNA, L-γ-glutamyl-p-nitroanilide]

- solubility (aqueous solubility; water): 2000 mM
Structure (SMILES): CC(=O)NCSC[C@H](N)C(=O)O [S-acetamidomethylcysteine]

- solubility (aqueous solubility; aqueous solution, pH 3, aqueous buffer): 100 µg/mL
- solubility (aqueous solubility; phosphate buffer, pH 8.5, aqueous buffer): 16.6 mM
- solubility (aqueous solubility; water, 37 °C, pH 9.1, water): ~5000 µg/mL
- solubility (physchem [3]; 50% DMF in diethanolamine (DEA) buffer): ~30 mM
- solubility (physchem [3]; 50% DMF in water): ~9000 µg/mL
Structure (SMILES): N[C@@H](CSSC[C@H](N)C(=O)O)C(=O)O [cystine]
